Results from the supplement of paper PMC11451515.

System: SEM cells
Assay: cell viability relative to DMSO control; higher = less cytotoxic
Conditions: 48 h
Summary of the method: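 In 1536-well plates, 5 μl of leukemia cells were seeded per well: 500 cells/well for NOMO1 or SEM and 1000 cells/well for P12-Ichikawa. Each line had first been adapted for at least four passages in each medium. Library compounds in DMSO were pin-dosed at 11 threefold concentrations between 47 μM and 0.79 nM, and CellTiter-Glo One luminescence was read after 48 h at 37°C. Viability is a per-plate percentage relative to DMSO wells, with cell-free wells as background.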

[1] = HPLM + 10% dialyzed FBS, 0.000781 µM
[2] = HPLM + 10% dialyzed FBS, 0.00234 µM
[3] = HPLM + 10% dialyzed FBS, 0.00702 µM
[4] = HPLM + 10% dialyzed FBS, 0.0211 µM
[5] = HPLM + 10% dialyzed FBS, 0.0632 µM
[6] = HPLM + 10% dialyzed FBS, 0.19 µM
[7] = HPLM + 10% dialyzed FBS, 0.569 µM
[8] = HPLM + 10% dialyzed FBS, 1.71 µM
[9] = HPLM + 10% dialyzed FBS, 5.12 µM
[10] = HPLM + 10% dialyzed FBS, 15.4 µM
[11] = HPLM + 10% dialyzed FBS, 46.1 µM
[12] = RPMI 5 mM glucose + 10% FBS, 0.000781 µM
[13] = RPMI 5 mM glucose + 10% FBS, 0.00234 µM
[14] = RPMI 5 mM glucose + 10% FBS, 0.00702 µM
[15] = RPMI 5 mM glucose + 10% FBS, 0.0211 µM
[16] = RPMI 5 mM glucose + 10% FBS, 0.0632 µM
[17] = RPMI 5 mM glucose + 10% FBS, 0.19 µM
[18] = RPMI 5 mM glucose + 10% FBS, 0.569 µM
[19] = RPMI 5 mM glucose + 10% FBS, 1.71 µM
[20] = RPMI 5 mM glucose + 10% FBS, 5.12 µM
[21] = RPMI 5 mM glucose + 10% FBS, 15.4 µM
[22] = RPMI 5 mM glucose + 10% FBS, 46.1 µM
[23] = RPMI 5 mM glucose + 10% dialyzed FBS, 0.000781 µM
[24] = RPMI 5 mM glucose + 10% dialyzed FBS, 0.00234 µM
[25] = RPMI 5 mM glucose + 10% dialyzed FBS, 0.00702 µM
[26] = RPMI 5 mM glucose + 10% dialyzed FBS, 0.0211 µM
[27] = RPMI 5 mM glucose + 10% dialyzed FBS, 0.0632 µM
[28] = RPMI 5 mM glucose + 10% dialyzed FBS, 0.19 µM
[29] = RPMI 5 mM glucose + 10% dialyzed FBS, 0.569 µM
[30] = RPMI 5 mM glucose + 10% dialyzed FBS, 1.71 µM
[31] = RPMI 5 mM glucose + 10% dialyzed FBS, 5.12 µM
[32] = RPMI 5 mM glucose + 10% dialyzed FBS, 15.4 µM
[33] = RPMI 5 mM glucose + 10% dialyzed FBS, 46.1 µM

In the case of `O=C1c2c(O)cccc2[C@H]([C@@H]2O[C@H](CO)[C@@H](O)[C@H](O)[C@H]2O)c2cc(CO)cc(O)c21`, the cell viability [1] is reported as 99.7%, the cell viability [2] is reported as 39% and the cell viability [3] is reported as 110%. It also gave a cell viability [4] of 105%, a cell viability [5] of 112% and a cell viability [6] of 111%. The cell viability [7] was 116%, the cell viability [8] was 108% and the cell viability [9] was 112%. The cell viability [10] was 116%, the cell viability [11] was 108% and the cell viability [12] was 89.4%. The cell viability [13] was 30.7%, the cell viability [14] was 92.8% and the cell viability [15] was 84%. It also gave a cell viability [16] of 98.2%, a cell viability [17] of 96.3% and a cell viability [18] of 106%. For the same molecule, the cell viability [19] was 91.3%, the cell viability [20] was 93% and the cell viability [21] was 93.5%. For the same molecule, the cell viability [22] was 106%, the cell viability [23] was 94% and the cell viability [24] was 27.4%. It also gave a cell viability [25] of 92.4%, a cell viability [26] of 96.7% and a cell viability [27] of 102%. The cell viability [28] was 101%, the cell viability [29] was 114% and the cell viability [30] was 109%. The cell viability [31] was 112%, the cell viability [32] was 90.1% and the cell viability [33] was 119%.
Molecule `CC1SC/2=C(C(O)=O)/C(=O)C3=CC(=C(C=C3N12)N4CCN(CC4)C\C5=C(C)\OC(=O)O5)F` (stereo not given) has a cell viability [12] of 61.5%, a cell viability [13] of 119% and a cell viability [14] of 128%. For the same molecule, the cell viability [15] was 121%, the cell viability [16] was 124% and the cell viability [17] was 123%. It also gave a cell viability [18] of 132%, a cell viability [19] of 111% and a cell viability [20] of 121%. The cell viability [21] was 114%, the cell viability [22] was 112% and the cell viability [23] was 47.8%. The cell viability [24] was 125%, the cell viability [25] was 143% and the cell viability [26] was 130%. The cell viability [27] was 133%, the cell viability [28] was 102% and the cell viability [29] was 140%. For the same molecule, the cell viability [30] was 126%, the cell viability [31] was 115% and the cell viability [32] was 116%. It also gave a cell viability [33] of 104%.
In the case of `Fc1cc(-c2cccc3ncc(-c4cnn(C5CCNCC5)c4)nc23)cc(F)c1CN1CCOCC1`, the cell viability [12] is reported as 110%, the cell viability [13] is reported as 113% and the cell viability [14] is reported as 107%. It also gave a cell viability [15] of 110%, a cell viability [16] of 112% and a cell viability [17] of 105%. For the same molecule, the cell viability [18] was 103%, the cell viability [19] was 95.8% and the cell viability [20] was 27.4%. The cell viability [21] was 25.7% and the cell viability [22] was 16%.
`N[C@@H](C(=O)N[C@H]1[C@H]2SC\C(=C(/N2C1=O)C(O)=O)Cl)C3=CC=CC=C3` gave a cell viability [1] of 104%, a cell viability [2] of 101% and a cell viability [3] of 118%. The cell viability [4] was 108%, the cell viability [5] was 117% and the cell viability [6] was 110%. For the same molecule, the cell viability [7] was 118%, the cell viability [8] was 108% and the cell viability [9] was 115%. The cell viability [10] was 128%, the cell viability [11] was 132% and the cell viability [23] was 119%. For the same molecule, the cell viability [24] was 135%, the cell viability [25] was 117% and the cell viability [26] was 149%. For the same molecule, the cell viability [27] was 137%, the cell viability [28] was 126% and the cell viability [29] was 147%. It also gave a cell viability [30] of 150%, a cell viability [31] of 120% and a cell viability [32] of 131%. For the same molecule, the cell viability [33] was 129%.
`Clc1cccc(-c2nnnn2Cc2cccnc2)c1Cl` showed a cell viability [1] of 79.7%, a cell viability [2] of 81.9% and a cell viability [3] of 67%. For the same molecule, the cell viability [4] was 92.9%, the cell viability [5] was 101% and the cell viability [6] was 103%. It also gave a cell viability [7] of 92.6%, a cell viability [8] of 57.7% and a cell viability [9] of 49.4%. The cell viability [10] was 50.2%, the cell viability [11] was 45% and the cell viability [12] was 101%. The cell viability [13] was 92%, the cell viability [14] was 70.1% and the cell viability [15] was 102%. The cell viability [16] was 95.3%, the cell viability [17] was 95% and the cell viability [18] was 74.6%. The cell viability [19] was 46.4%, the cell viability [20] was 40.4% and the cell viability [21] was 42%. For the same molecule, the cell viability [22] was 35.9%, the cell viability [23] was 87.5% and the cell viability [24] was 85.7%. It also gave a cell viability [25] of 75%, a cell viability [26] of 93.4% and a cell viability [27] of 91.7%. It also gave a cell viability [28] of 99.4%, a cell viability [29] of 102% and a cell viability [30] of 62%. It also gave a cell viability [31] of 56%, a cell viability [32] of 58.4% and a cell viability [33] of 46.6%.
Molecule `NC1CCC(N[C@@H]2C[C@H]2c2ccccc2)CC1` (stereo not given in full) has a cell viability [1] of 75.5%, a cell viability [2] of 90% and a cell viability [3] of 87.5%. The cell viability [4] was 87.5%, the cell viability [5] was 92.9% and the cell viability [6] was 92.8%. The cell viability [7] was 93.7%, the cell viability [8] was 76.4% and the cell viability [9] was 83.2%. For the same molecule, the cell viability [10] was 82.3%, the cell viability [11] was 81.5% and the cell viability [12] was 120%. The cell viability [13] was 126%, the cell viability [14] was 114% and the cell viability [15] was 115%. For the same molecule, the cell viability [16] was 119%, the cell viability [17] was 124% and the cell viability [18] was 146%. For the same molecule, the cell viability [19] was 106%, the cell viability [20] was 111% and the cell viability [21] was 105%. The cell viability [22] was 98.9%, the cell viability [23] was 84.2% and the cell viability [24] was 98.5%. For the same molecule, the cell viability [25] was 99.8%, the cell viability [26] was 96.7% and the cell viability [27] was 98%. It also gave a cell viability [28] of 96.3%, a cell viability [29] of 106% and a cell viability [30] of 81.9%. For the same molecule, the cell viability [31] was 92.4%, the cell viability [32] was 81.4% and the cell viability [33] was 74%.
In the case of `COc1ccc(/C=C\c2cc(OC)c(OC)c(OC)c2)cc1O`, the cell viability [1] is reported as 27.3%, the cell viability [2] is reported as 26.8% and the cell viability [3] is reported as 29.2%. It also gave a cell viability [4] of 27.9%, a cell viability [5] of 19.5% and a cell viability [6] of 15.9%. It also gave a cell viability [7] of 16.8%, a cell viability [8] of 12.7% and a cell viability [9] of 8.59%. The cell viability [10] was 6.14%, the cell viability [11] was 3.96% and the cell viability [12] was 20%. For the same molecule, the cell viability [13] was 22.4%, the cell viability [14] was 23% and the cell viability [15] was 15.1%. For the same molecule, the cell viability [16] was 8.98%, the cell viability [17] was 7.29% and the cell viability [18] was 7.3%. For the same molecule, the cell viability [19] was 5.54%, the cell viability [20] was 5.21% and the cell viability [21] was 3.08%. It also gave a cell viability [22] of 2.03%, a cell viability [23] of 23.3% and a cell viability [24] of 28.5%. The cell viability [25] was 33.5%, the cell viability [26] was 25.2% and the cell viability [27] was 12.6%. The cell viability [28] was 10.5%, the cell viability [29] was 9.81% and the cell viability [30] was 7.46%. For the same molecule, the cell viability [31] was 6.37%, the cell viability [32] was 4.4% and the cell viability [33] was 2.55%.
In the case of `Cc1ccc(-n2nc(C(C)(C)C)cc2NC(=O)Nc2ccc(OCCN3CCOCC3)c3ccccc23)cc1`, the cell viability [1] is reported as 78.7%, the cell viability [2] is reported as 94% and the cell viability [3] is reported as 91.9%. The cell viability [4] was 90.8%, the cell viability [5] was 86.7% and the cell viability [6] was 100%. It also gave a cell viability [7] of 84%, a cell viability [8] of 86.2% and a cell viability [9] of 82.2%. The cell viability [10] was 63.7%, the cell viability [11] was 61.8% and the cell viability [12] was 96.6%. For the same molecule, the cell viability [13] was 115%, the cell viability [14] was 104% and the cell viability [15] was 103%. The cell viability [16] was 87.1%, the cell viability [17] was 87.1% and the cell viability [18] was 84.1%. The cell viability [19] was 80.8%, the cell viability [20] was 83.6% and the cell viability [21] was 64%. The cell viability [22] was 74.8%, the cell viability [23] was 89.9% and the cell viability [24] was 97.9%. The cell viability [25] was 79.6%, the cell viability [26] was 94.1% and the cell viability [27] was 92%. The cell viability [28] was 90%, the cell viability [29] was 83.7% and the cell viability [30] was 84.7%. It also gave a cell viability [31] of 84.1%, a cell viability [32] of 51.7% and a cell viability [33] of 58.8%.
